{"source": "patent US12708676B2", "about": "“Phosphate compounds for detecting neurological disorders” (Amydis, Inc., priority 2018, dated 2026)", "key": {"[1]": {"assay": "Solubility of Compound 7 in various media", "type": "physicochemical", "protocol": "The physical properties of Compound 7 were determined."}, "[2]": {"assay": "Rabbit pharmacokinetics of Compound 9, Study 1 (retina, brain, blood)", "type": "in vivo", "conditions": "for concentration at 15 min / concentration at 30 min / concentration at 60 min: Study 1, 30 mg Compound 9 injected", "protocol": "Compound 9 was injected into rabbits as a solution in 0.1 M phosphate buffer, pH 7.4 such that rabbits received either 30 mg of Compound 9 (Study 1) or 28 mg of Compound 9 (Study 2). The purpose of these studies was to confirm that Compound 9 could easily be converted into Compound 7 in vivo.\nStudy 1: Rabbits received a 1.5 mL injection of a 20 mg/mL solution of Compound 9 in 0.1 M phosphate buffer, pH 7.4. Rabbits were sacrificed at the specified time points (N=3 per time point) in the tables below and the average concentration of Compound 9 and Compound 7 was determined in the retina (Table 3), brain (Table 4) and blood (Table 5)."}, "[3]": {"molecular_target": "aggregated Aβ (Homo sapiens, UniProt P05067)", "assay": "Fluorescent detection of Aβ in vitro", "type": "binding"}, "[4]": {"tested_on": "Aβ", "assay": "Example 4: detection of Aβ in the retina of a TBI (blast) mouse model", "type": "in vivo", "conditions": "after Compound 9 intravenously, example in present tense", "protocol": "This example is conducted to determine whether Compound 9 detects Aβ in the retina of a TBI mouse model.\nBlast model mice 24 hours after injury and a non-injured mouse are administered Compound 9 intravenously. Mice retinas are scanned by scanning laser ophthalmoscopy (SLO).\nAlternatively, or in addition to retinal scanning, retinal tissues are removed and stained with an anti-Aβ antibody (6E10)."}, "[5]": {"molecular_target": "prion deposits (Mus musculus, UniProt P04925)", "sequence (P04925 23-230 limits assumed)": "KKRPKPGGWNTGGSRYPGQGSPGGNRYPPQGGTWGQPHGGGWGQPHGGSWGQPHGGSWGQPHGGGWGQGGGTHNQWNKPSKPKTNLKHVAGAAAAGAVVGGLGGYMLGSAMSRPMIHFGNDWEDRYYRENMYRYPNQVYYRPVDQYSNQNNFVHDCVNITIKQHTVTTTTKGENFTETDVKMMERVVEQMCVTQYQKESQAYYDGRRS", "type": "in vivo", "conditions": "administered as Compound 10"}, "[6]": {"molecular_target": "Aβ40 (Homo sapiens, UniProt P05067, D694N/E693Q)", "assay": "Example 8: in vivo retinal imaging and ex vivo IHC of APPSwDI, PSAPP and wild type mice", "parameters": "species or system mouse", "conditions": "APPSwDI mouse"}, "[7]": {"tested_on": "Aβ40", "assay": "Example 8: in vivo retinal imaging and ex vivo IHC of APPSwDI, PSAPP and wild type mice", "parameters": "species or system mouse", "conditions": "PSAPP mouse"}, "[8]": {"molecular_target": "α-syn deposits (Homo sapiens, UniProt P37840)", "assay": "Example 9: retinal imaging of Line 61 Parkinson's Disease Tg mouse model", "type": "in vivo", "text": "Two transgenic mouse models of Parkinson's Disease (D-line and Line 61) were examined for retinal α-syn deposits. The models selected produce α-syn deposition in the brain, but to date production in the retina had not been determined. […] After live imaging, mice were sacrificed, and the brain and retina were harvested for immunofluorescence and biochemistry.\nAccordingly, Line 61 model manifest retinal α-syn in ~30% of mice and was useful in showing the utility of the disclosed compounds. […] Brain tissue was extracted post-mortem from mice after the last imaging session and stained with DAPI and a SYN1 antibody confirming the presence of α-syn in the Line 61 Mouse brain.\nTo confirm objects detected in vivo were α-syn, retinal tissue was extracted post-mortem from mice after the last imaging session and stained with DAPI and a SYN1 antibody (FIG. 11)."}, "[9]": {"molecular_target": "alpha-synuclein (Homo sapiens, UniProt P37840)", "assay": "Example 9: ex vivo flatmount staining of human retinas with Compound 7 and SYN-1 Ab", "type": "binding", "conditions": "for Average No. of co-stained objects / Average No. of singly-stained objects: PD retina, per ~250,000 μm^2 area; for Average No. of co-stained objects: co-stained with SYN-1; for Co-localization with alpha-synuclein (SYN-1 Ab): 60 μM Compound 7", "protocol": "To understand if Compound 7 (active drug) can detect retinal α-syn in human eyes, human retinal tissue was extracted post-mortem from both a healthy patient and a patient diagnosed with Parkinson's Disease, and stained with Compound 7, DAPI and a SYN1 antibody.\nEye dissection: Cornea, iris and lens were removed from the eye cup and the eye placed into 4% PFA for 1 hour. […] The different regions were mounted on separate slides.\nFlatmount retinal staining: The tissue was fixed in room temperature 4% PFA for 20 minutes, washed, permeabilized, blocked (2.5% goat serum in PBST), stained with Alpha-synuclein antibody (SYN-1) at a dilution of 1:1000 and incubate overnight at 4° C., washed with PBST (3 times for 5 minutes), incubated with secondary antibody (Alexa fluor 647 anti-mouse) in dark for 1 hr at RT. The tissue was then washed with PB ST (3 times for 5 minutes), incubated with 60 μM Compound 7 for 30 minutes at RT, washed with PBS (3 times for 10 minutes), incubate with DAPI (300 nM or 100 ng/mL) in dark for 10 minutes, and washed with PBS (3 times for 5 minutes). The tissue was then mounted using antifade DAKO mounting media.\nTo determine the number of objects co-stained with Compound 7 and SYN1, the average number of objects co-stained with Compound 7 and SYN1 was quantified. This was completed for each quadrant of both the left and right eye (Table 10 and Table 11)."}, "[10]": {"molecular_target": "Aβ plaques (Homo sapiens, UniProt P05067)", "assay": "Example 7: ex vivo staining of human Alzheimer's disease tissue, co-localization with 6E10"}, "[11]": {"conditions": "blood, other: injection (site not specified), read-out: Avg Conc., blood"}, "[12]": {"conditions": "retina, other: injection (kind of injection not stated), read-out: Avg Conc., retina"}, "[13]": {"conditions": "15 minutes after iv Compound 10"}, "[14]": {"conditions": "labelling from in vivo injection of Compound 10"}}, "note": "Where two headings read alike, the source gives them in different places."}
{"smiles": "N#C/C(=C\\c1ccc2cc(N3CCCCC3)ccc2c1)C(=O)NCCOCCOCCO", "note": "[Compound 7, (E)-2-cyano-N-(2-(2-(2-hydroxyethoxy)ethoxy)ethyl)-3-(6-(piperidin-1-yl)naphthalen-2-yl)acrylamide]", "values": [{"measurement": "solubility", "setting": "[1]; SGF, simulated gastric fluid", "value": 3600, "unit": "µg/mL"}, {"measurement": "solubility", "setting": "[1]; castor oil, oil or lipid", "value": "> 9000", "unit": "µg/mL"}, {"measurement": "solubility", "setting": "[1]; n-octanol, organic solvent or mixture", "value": "> 8000", "unit": "µg/mL"}, {"measurement": "solubility", "setting": "[1]; pH 4.0 buffer, pH 4, aqueous buffer", "value": 70, "unit": "µg/mL"}, {"measurement": "solubility", "setting": "[1]; pH 7.0 buffer, pH 7, aqueous buffer", "value": 4.6, "unit": "µg/mL"}, {"measurement": "solubility", "setting": "[1]; pH 7.4 buffer, pH 7.4, aqueous buffer", "value": 3.3, "unit": "µg/mL"}, {"measurement": "solubility", "setting": "[1]; pH 9.0 buffer, pH 9, aqueous buffer", "value": 4.8, "unit": "µg/mL"}, {"measurement": "solubility", "setting": "[1]; water", "value": 1.7, "unit": "µg/mL"}, {"measurement": "Kp,brain by 30 minutes", "setting": "[2]; 30 minutes after injection of Compound 9", "value": "significantly decreased to undetectable values"}, {"measurement": "concentration at 15 min", "setting": "[2]; [11]", "value": "217 ± 31.2", "unit": "ng/mL"}, {"measurement": "concentration at 30 min", "setting": "[2]; [11]", "value": "9.41 ± 1.89", "unit": "ng/mL"}, {"measurement": "concentration at 60 min", "setting": "[2]; [11]", "value": "2.1 ± 2.43", "unit": "ng/mL"}, {"measurement": "concentration at 15 min", "setting": "[2]; brain, other: injection (site not specified), read-out: Avg Conc., brain", "value": "0.987 ± 0.273", "unit": "ng/g"}, {"measurement": "Circulation time in the retina", "setting": "[2]; levels significantly decreasing over an hour", "value": "relatively short"}, {"measurement": "concentration at 15 min", "setting": "[2]; [12]", "value": "10.1 ± 7.3", "unit": "ng/g"}, {"measurement": "concentration at 30 min", "setting": "[2]; [12]", "value": "2.13 ± 1.71", "unit": "ng/g"}, {"measurement": "concentration at 60 min", "setting": "[2]; [12]", "value": "0.779 ± 0.325", "unit": "ng/g"}, {"measurement": "Detection of aggregated Aβ in vitro", "setting": "[3]", "value": "demonstrated the ability to detect aggregated Aβ"}, {"measurement": "Fluorescent labelling of retinal deposits", "setting": "[4]; mouse with blast injury", "value": "fluorescently labels retinal deposits that are visible upon fluorescent activation"}, {"measurement": "Fluorescent enhancement in retinal tissue", "setting": "[4]; uninjured mouse", "value": "does not display any fluorescent enhancement"}, {"measurement": "Labelling of retinal prion deposits in vivo", "setting": "[5]; pre-symptomatic prion-inoculated mice", "value": "successfully labelled large objects around the optic disk and vasculature believed to be prion deposits"}, {"measurement": "Labelling of retinal prion deposits in vivo", "setting": "[5]; terminally diseased prion mice", "value": "successfully labelled large objects around the optic disk and vasculature believed to be prion deposits"}, {"measurement": "Labelling in brain sections, ex vivo IHC", "setting": "[6]; [13]", "value": "amyloid deposits along a vessel labeled with Compound 7 and 6E10"}, {"measurement": "Structures labelled in retinal tissue", "setting": "[6]; administered as Compound 10", "value": "labels both vessels and diffuse deposits in the retinal tissue"}, {"measurement": "Co-localization with 6E10 in retina, ex vivo IHC", "setting": "[6]; [14]", "value": "co-localized with a sequence specific antibody for Aβ (6E10)"}, {"measurement": "Labelling in brain sections, ex vivo IHC", "setting": "[7]; [13]", "value": "labeling of amyloid plaques with Compound 7 and 6E10"}, {"measurement": "Co-localization with 6E10 in retina, ex vivo IHC", "setting": "[7]; [14]", "value": "co-localization of Compound 7 with 6E10"}, {"measurement": "Specificity for α-syn deposits", "setting": "[8]; Line 61 model, via administration of Compound 10", "value": "specific for α-syn deposits associated with Parkinson's Disease"}, {"measurement": "Co-localization with SYN1", "setting": "[8]; brain and retinal tissue of Tg mice", "value": "co-localizes with an anti-alpha-synuclein antibody (SYN1)"}, {"measurement": "Average No. of co-stained objects", "setting": "[9]; left eye, Inferior", "value": 13.6}, {"measurement": "Average No. of singly-stained objects", "setting": "[9]; left eye, Inferior", "value": 0.87}, {"measurement": "Average No. of co-stained objects", "setting": "[9]; left eye, Nasal", "value": 13}, {"measurement": "Average No. of singly-stained objects", "setting": "[9]; left eye, Nasal", "value": 0.75}, {"measurement": "Average No. of co-stained objects", "setting": "[9]; left eye, Superior", "value": 20}, {"measurement": "Average No. of singly-stained objects", "setting": "[9]; left eye, Superior", "value": 0.25}, {"measurement": "Average No. of co-stained objects", "setting": "[9]; left eye, Temporal", "value": 12.37}, {"measurement": "Average No. of singly-stained objects", "setting": "[9]; left eye, Temporal", "value": 0.5}, {"measurement": "Average No. of co-stained objects", "setting": "[9]; right eye, Inferior", "value": 12.12}, {"measurement": "Average No. of singly-stained objects", "setting": "[9]; right eye, Inferior", "value": 0.75}, {"measurement": "Average No. of co-stained objects", "setting": "[9]; right eye, Nasal", "value": 14.3}, {"measurement": "Average No. of singly-stained objects", "setting": "[9]; right eye, Nasal", "value": 1.75}, {"measurement": "Average No. of co-stained objects", "setting": "[9]; right eye, Superior", "value": 16}, {"measurement": "Average No. of singly-stained objects", "setting": "[9]; right eye, Superior", "value": 0.5}, {"measurement": "Average No. of co-stained objects", "setting": "[9]; right eye, Temporal", "value": 11.62}, {"measurement": "Average No. of singly-stained objects", "setting": "[9]; right eye, Temporal", "value": 0.5}, {"measurement": "Co-localization with alpha-synuclein (SYN-1 Ab)", "setting": "[9]; post-mortem retinas of healthy human patient", "value": "very little or no co-localization"}, {"measurement": "Co-localization with alpha-synuclein (SYN-1 Ab)", "setting": "[9]; post-mortem retinas of human PD patient", "value": "co-localization of Compound 7 and Alpha-Synuclein deposits (SYN-1 Ab) in all regions"}, {"measurement": "Binding to Aβ plaques in human tissue", "setting": "[10]; brain and retinal tissue of human Alzheimer's patients", "value": "bind to Aβ plaques in both brain and retinal tissue"}, {"measurement": "Detection of aggregated Aβ ex vivo", "setting": "[10]; ex vivo, human Alzheimer's brain tissue", "value": "demonstrated the ability to detect aggregated Aβ"}]}
